Assay results from patent US20070094743A1, “ABCG1/ABCG4-related methods and compositions” (priority 2005, published 2007).

Tests used:
[1] = test system: ABCG1 mRNA; experiment: ABCG1 mRNA levels normalized against β-actin mRNA, Taqman real-time RT-PCR, in mouse macrophages; type: cell-based; conditions: 2 μM, data not shown
Protocol: (§1) Where indicated, RNA oligonucleotides targeting both sequences were mixed and used to down-regulate ABCG1 or ABCG4 gene expression. The scrambled control RNA oligonucleotides also were obtained from Dharmacon. An independent set of siRNA targeting ABCG1 (5′[…]3′) or ABCG4 (5′[…]3′) was obtained from Qiagen and used where indicated. For cholesterol efflux assays, mouse peritoneal macrophages were plated in 24- or 48-well plates and cultured in 10% fetal bovine serum and DMEM media at 37° C. for 24 hours. Cells were then transfected with siRNA and LipofectAMINE 2000 at the indicated concentration and labeled with isotopic cholesterol (2 μCi/ml [^3H]cholesterol in 1% fetal bovine serum) in the presence or absence of TO901317 (2 μM) for 48 hours. Cells were washed twice and equilibrated for 30 minutes for the third wash, and then HDL or other acceptors were added for the indicated period. Levels of ABCG1 and ABCG4 mRNAs normalized against β-actin mRNA were determined using Taqman real-time quantititative RT-PCR. The primers and probes were from Applied Biosystems.

[2] = test system: ABCG4 mRNA; experiment: ABCG4 mRNA levels normalized against β-actin mRNA, Taqman real-time RT-PCR, in mouse macrophages; type: cell-based; conditions: 2 μM, data not shown
Protocol: as §1

Q: With `O=S(=O)(c1ccccc1)N(CC(F)(F)F)c1ccc(C(O)(C(F)(F)F)C(F)(F)F)cc1` [T0901317] as the compound, how does the “increase of mRNA levels of ABCG1” value [1] read?
A: 3 fold

Q: What about the “increase of mRNA levels of ABCG4” value [2] of the same compound?
A: 2 fold
